In the supplement of paper PMC11061612:

What was measured:
Test in all cases: combination Emax (second highest fraction inhibited in the dose matrix, 72 h); higher = more inhibition; extreme values may be limits of the assay
[1] = test system: HT-1080 (Other Solid Carcinomas)
In short: (§1)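 Bliss excess equals the observed combination effect minus the expected value EA + EB − EA·EB, where EA and EB are the effects of each agent alone. Combination Emax is the second-highest inhibition within the matrix. Inhibition was scaled from CellTiter-Glo 2.0 luminescence, with 0 set by vehicle wells and 1 by blank wells, after 72 hours of two-drug dosing of cells plated in 1536-well plates.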

[2] = test system: MS-1 (Small Cell Lung Carcinoma)
In short: as §1

[3] = test system: SNU-C2B (Colorectal Carcinoma)
In short: as §1

[4] = test system: OAW-28 (Ovarian Carcinoma)
In short: as §1

[5] = test system: BxPC-3 (Pancreatic Carcinoma)
In short: as §1

[6] = test system: NCI-H3118 (Head and Neck Carcinoma)
In short: as §1

[7] = test system: SNU-407 (Colorectal Carcinoma)
In short: as §1

[8] = test system: TUR (Acute Myeloid Leukemia)
In short: as §1

SK-N-SH (Neuroblastoma) = test system: SK-N-SH (Neuroblastoma)
In short: as §1

[9] = test system: NCI-H1963 (Small Cell Lung Carcinoma)
In short: as §1

[10] = test system: ZR-75-30 (Breast Carcinoma)
In short: as §1

[11] = test system: Raji (Burkitt's Lymphoma)
In short: as §1

[12] = test system: MOLP-8 (Plasma Cell Myeloma)
In short: as §1

[13] = test system: MONO-MAC-6 (Acute Myeloid Leukemia)
In short: as §1

KALS-1 (Glioblastoma) = test system: KALS-1 (Glioblastoma)
In short: as §1

NCI-H226 (Mesothelioma) = test system: NCI-H226 (Mesothelioma)
In short: as §1

[14] = test system: P32-ISH (Burkitt's Lymphoma)
In short: as §1

[15] = test system: MDA-MB-415 (Breast Carcinoma)
In short: as §1

[16] = test system: PA-TU-8988T (Pancreatic Carcinoma)
In short: as §1

SMILES | combination Emax [1] | combination Emax [2] | combination Emax [3] | combination Emax [4] | combination Emax [5] | combination Emax [6] | combination Emax [7] | combination Emax [8] | combination Emax (SK-N-SH (Neuroblastoma)) | combination Emax [9] | combination Emax [10] | combination Emax [11] | combination Emax [12] | combination Emax [13] | combination Emax (KALS-1 (Glioblastoma)) | combination Emax (NCI-H226 (Mesothelioma)) | combination Emax [14] | combination Emax [15] | combination Emax [16]
NC1(C(=O)N[C@@H](CCO)c2ccc(Cl)cc2)CCN(c2ncnc3[nH]ccc23)CC1 [Capivasertib] + CCN(CCO)CCCOc1ccc2c(Nc3cc(CC(=O)Nc4cccc(F)c4)[nH]n3)ncnc2c1 [AZD2811] (first compound max 10 µM, 7x7, partner max 1 µM) | 0.256 | 0.386 | 0.329 | 0.249 | 0.241 | 0.241 | 0.714 | 0.912 | 0.476 | 0.93 | 0.442 | 0.293 | 0.583 | 0.817 | 0.495 | 0.311 | 0.951 | 0.837 | 0.546
NC1(C(=O)N[C@@H](CCO)c2ccc(Cl)cc2)CCN(c2ncnc3[nH]ccc23)CC1 [Capivasertib] + COc1nnc2ccc(N3CCC(c4ccc(OCCN5CCN(C)C(=O)[C@H]5C)cc4)CC3)nn12 [AZD5153] (first compound max 10 µM, 7x7, partner max 1 µM) | 0.388 | 0.931 | 0.54 | 0.493 | 0.399 | 0.537 | 0.882 | 1 | 0.624 | 0.767 | 0.353 | 0.646 | 1 | 1 | 0.682 | 0.402 | 1 | 0.9 | 0.798
NC1(C(=O)N[C@@H](CCO)c2ccc(Cl)cc2)CCN(c2ncnc3[nH]ccc23)CC1 [Capivasertib] + C[C@@H]1COCCN1C2=NC(=NC(=C2)C3(CC3)[S@](=N)(=O)C)C4=C5C=CNC5=NC=C4 [AZD6738] (first compound max 10 µM, 7x7, partner max 10 µM) | 0.435 | 0.747 | 0.647 | 0.515 | 0.429 | 0.603 | 0.82 | 0.962 | 0.872 | 0.885 | 0.469 | 0.724 | 0.85 | 0.917 | 0.784 | 0.358 | 0.927 | 0.846 | 0.625
NC1(C(=O)N[C@@H](CCO)c2ccc(Cl)cc2)CCN(c2ncnc3[nH]ccc23)CC1 [Capivasertib] + Cn1cnc2c(F)c(Nc3ccc(Br)cc3Cl)c(C(=O)NOCCO)cc21 [Selumetinib] (first compound max 10 µM, 7x7, partner max 10 µM) | 0.466 | 0.267 | 0.388 | 0.268 | 0.426 | 0.657 | 0.767 | 0.924 | 0.333 | 0.492 | 0.501 | 0.192 | 0.715 | 0.847 | 0.61 | 0.316 | 0.489 | 0.85 | 0.689
Cc1nc(Nc2ncc(C(=O)Nc3c(C)cccc3Cl)s2)cc(N2CCN(CCO)CC2)n1 [Dasatinib] + CC(=O)Nc1cccc(-n2c(=O)n(C3CC3)c(=O)c3c(Nc4ccc(I)cc4F)n(C)c(=O)c(C)c32)c1 [Trametinib] (first compound max 2 µM, 7x7, partner max 1 µM) | 0.61 | 0.125 | 0.66 | 0.524 | 0.868 | 0.811 | 0.756 | 0.308 | 0.476 | 0.38 | 0.0302 | 0.134 | 0.621 | 0.589 | 0.917 | 0.458 | 0.411 | 0.385 | 0.887
COc1cc2ncnc(Nc3ccc(F)c(Cl)c3)c2cc1OCCCN1CCOCC1 [Gefitinib] + CC(C)n1c(=O)n(C)c2cnc3cc(F)c(-c4ccc(OCCCN5CCCCC5)nc4)cc3c21 [AZD1390] (first compound max 10 µM, 7x7, partner max 0.3 µM) | 0.0949 | 0.273 | 0.246 | 0.215 | 0.285 | 0.518 | 0.168 | 0.293 | 0.0891 | 0.062 | 0.446 | 0.162 | 0.413 | 0.42 | 0.127 | 0.0952 | 0.333 | 0.191 | 0.15
CS(=O)(=O)CCNCc1ccc(-c2ccc3ncnc(Nc4ccc(OCc5cccc(F)c5)c(Cl)c4)c3c2)o1 [Lapatinib] + C[C@@H](Oc1cc(-c2cnn(C3CCNCC3)c2)cnc1N)c1c(Cl)ccc(F)c1Cl [Crizotinib] (first compound max 10 µM, 7x7, partner max 10 µM) | 0.823 | 0.941 | 0.753 | 0.75 | 0.946 | 0.928 | 0.966 | 0.59 | 0.899 | 0.966 | 0.83 | 0.76 | 0.978 | 0.951 | 0.801 | 0.44 | 1 | 0.633 | 0.64
CC(=O)c1c(C)c2cnc(Nc3ccc(N4CCNCC4)cn3)nc2n(C2CCCC2)c1=O [Palbociclib] + CC1(C)CCC(CN2CCN(c3ccc(C(=O)NS(=O)(=O)c4ccc(NCC5CCOCC5)c([N+](=O)[O-])c4)c(Oc4cnc5[nH]ccc5c4)c3)CC2)=C(c2ccc(Cl)cc2)C1 [Venetoclax] (first compound max 10 µM, 7x7, partner max 1 µM) | 0.143 | 0.303 | 0.152 | 0.173 | 0.0941 | 0.318 | 0.398 | 0.348 | 0.465 | 0.922 | 0.101 | 0.436 | 0.538 | 0.823 | 0.146 | 0.176 | 0.66 | 0.155 | 0.141
CC(=O)c1c(C)c2cnc(Nc3ccc(N4CCNCC4)cn3)nc2n(C2CCCC2)c1=O [Palbociclib] + Cc1c2c(nn1C)CSCc1cc(n(C)n1)CSc1cc(c3ccccc3c1)OCCCc1c(C(=O)O)n(C)c3c-2c(Cl)ccc13 [AZD5991] (first compound max 10 µM, 7x7, partner max 1 µM) | 0.0542 | 0.609 | 0.365 | 0.277 | 0.301 | 0.426 | 0.621 | 0.621 | 0.575 | 0.534 | 0.26 | 0.704 | 1 | 1 | 0.229 | 0.204 | 1 | 0.444 | 0.229
CC(=O)c1c(C)c2cnc(Nc3ccc(N4CCNCC4)cn3)nc2n(C2CCCC2)c1=O [Palbociclib] + Cn1cnc2c(F)c(Nc3ccc(Br)cc3Cl)c(C(=O)NOCCO)cc21 [Selumetinib] (first compound max 10 µM, 7x7, partner max 10 µM) | 0.361 | 0.416 | 0.303 | 0.344 | 0.414 | 0.603 | 0.654 | 0.379 | 0.371 | 0.456 | 0 | 0.453 | 0.553 | 0.669 | 0.432 | 0.232 | 0.699 | 0.254 | 0.514
C[C@@H](c1ccc2nccn2c1)n1nnc2ncc(-c3cnn(C)c3)nc21 [Savolitinib] + CC1(C)CCC(CN2CCN(c3ccc(C(=O)NS(=O)(=O)c4ccc(NCC5CCOCC5)c([N+](=O)[O-])c4)c(Oc4cnc5[nH]ccc5c4)c3)CC2)=C(c2ccc(Cl)cc2)C1 [Venetoclax] (first compound max 1 µM, 7x7, partner max 1 µM) | 0.0906 | 0.155 | 0.0589 | 0.163 | 0.216 | 0.115 | 0.231 | 0.0127 | 0.32 | 0.422 | 0.127 | 0.171 | 0.0876 | 0.213 | 0.113 | 0.17 | 0.0681 | 0.261 | 0.165
C[C@@H](c1ccc2nccn2c1)n1nnc2ncc(-c3cnn(C)c3)nc21 [Savolitinib] + Cc1c2c(nn1C)CSCc1cc(n(C)n1)CSc1cc(c3ccccc3c1)OCCCc1c(C(=O)O)n(C)c3c-2c(Cl)ccc13 [AZD5991] (first compound max 1 µM, 7x7, partner max 1 µM) | 0.117 | 0.26 | 0.187 | 0.142 | 0.136 | 0.225 | 0.666 | 0.347 | 0.267 | 0.192 | 0.248 | 0.751 | 1 | 0.997 | 0.186 | 0.131 | 1 | 0.344 | 0.243
Cn1cnc2c(F)c(Nc3ccc(Br)cc3Cl)c(C(=O)NOCCO)cc21 [Selumetinib] + C=CCn1c(=O)c2cnc(Nc3ccc(N4CCN(C)CC4)cc3)nc2n1-c1cccc(C(C)(C)O)n1 [AZD1775] (first compound max 10 µM, partner max 1 µM) | 0.439 | 0.778 | 0.463 | 0.395 | 0.557 | 0.902 | 0.722 | 0.764 | 0.381 | 0.913 | 0.134 | 0.681 | 0.791 | 0.743 | 0.755 | 0.145 | 0.999 | 0.23 | 0.805
